Measurements: patent publication US20250154201A1, “PEPTIDE BINDING TO MESOTHELIN, AND USE THEREOF” (KYUNGPOOK NATIONAL UNIVERSITY INDUSTRY-ACADEMIC COOPERATION …, priority 2022, published 2025)
Converted amounts (≈) assume the structure as drawn. Positions of bridges follow the written chain, without caps; N, C: chain ends. Residues, ends and D or L forms follow the SMILES beside them. No end group written: not given here.

How the values were obtained:
[1] = system: pancreatic cancer cell line AsPC-1; test: cells
Method: (§1) Pancreatic cancer cell line AsPC-1 cells (5×10^3 cells/well in 96-well plates) were cultured in 1% serum medium with various concentrations of MSLN-pep peptide that specifically binds to mesothelin, NSSSVDK control peptide (Ctrl-pep), R7-KLA peptide that induces apoptosis, Abraxane, gemcitabine, and PBS at 37° C. for 24 and 48 hours. Afterwards, CCK-8 Kit (Dojindo, Kumamoto, Japan) reagent was treated, and a reaction was carried out at 37° C. for 2 hours to evaluate cytotoxicity.
(§2) To determine whether there is cytotoxicity when MSLN-pep binds specifically to mesothelin, the peptide was treated to the pancreatic cancer cell line AsPC-1 at concentrations of 0, 25, 50, 100, and 200 μM, and cell viability was checked for 24 and 48hours.

[2] = in vitro
Method: as §1, §2

[3] = system: pancreatic cancer cell lines PANC-1 and AsPC-1; test: internalization of FITC-labeled peptides (confocal microscopy); assay type: cell-based, human; details: 25 μM and 50 μM MSLN-pep, 50 uM NSSSVDK; 1 and 2 hours
Method: To observe the intracellular distribution of the internalized FITC-labeled peptide MSLN-pep, pancreatic cancer cell lines AsPC-1 and PANC-1 cells (2.5×10^5 cell counts) were dispensed on a 4-well chamber slide. After complete adhesion, the cell culture medium was replaced with a fresh medium containing FITC-labeled peptides (25 μM, 50 μM), […], and the cells were washed with PBS 3 times for 3˜5 minutes, followed by fixation (4% paraformaldehyde; PFA) for 5 minutes. Thereafter, washing with PBS was performed. After staining the nucleus with DAPI and mounting on a glass slide with a fading reagent, internalization of FITC-labeled MSLN-pep was observed under confocal microscopy.

[4] = system: PANC-1 and AsPC-1 cell lines; test: analysis of migration (24-transwell); assay type: cell-based, human; details: 200 μM + 10% FBS; 24 hours
Method: PANC-1 and AsPC-1 cell lines were cultured using DMEM and RPMI-1640 media with 10% FBS added respectively in the upper chamber of 24-transwell at a concentration of 2×10^4 cells per well. After 24 hours, all the media in the upper chamber of 24-transwells were removed and replaced with DMEM and RPMI-1640 media without addition of 10% FBS to inhibit migratability of cell lines, so as to be in a starvation state. After 24 hours, the experimental group was added with 10% FBS in the lower chamber, and the control was added with 0% FBS in the lower chamber to observe migratability. 3% ACN, 200 μM control peptide (Ctrl-pep), MSLN-pep 25. For 50, 100, and 200 μM groups, the media in the upper chamber of 24-Transwell were removed, each drug was treated by concentration, and 10% FBS was treated in the lower chamber. Each group was cultured at 37° C. for 24 hours, and then the cells were photographed (original magnification, ×100) by concentration of each peptide. Cells were stained with crystal violet (0.1%), and the ImageJ, a computer program, was used for quantitative evaluation.
(§3) After pancreatic cancer cell lines PANC-1 and AsPC-1 were cultured in 24-transwells, all cells were starved for 24 hours to inhibit cell growth, and then treatment was performed in divided groups of 10% FBS, 0% FBS, 3% ACN+10% FBS, 200 μM NSSSVDK+10% FBS, 25 μM MSLN-pep+10% FBS, 50 μM MSLN-pep+10% FBS, 100 μM MSLN-pep+10% FBS, and 200 μM MSLN-pep+10% FBS.

[5] = system: PANC-1 and AsPC-1 cell lines; test: analysis of invasion (Matrigel-coated 24-transwell); assay type: cell-based, human; details: 200 μM + 10% FBS; 24 hours
Method: PANC-1 and AsPC-1 cell lines were cultured using DMEM and RPMI-1640 media with 10% FBS added in 100 mm dish each at a concentration of 2×10^6 cells per well. After 24 hours, all media in 100 mm dishes were removed and replaced with DMEM and RPMI-1640 media without addition of 10% FBS to inhibit migratability of cell lines so as to be in a starvation state. After 24 hours, 300 μg/mL of Matrigel was coated on the upper chamber of 24-Transwell. Afterwards, PANC-1 and AsPC-1 cell lines were cultured in the upper chamber at a concentration of 2×10^4 cells in a 100 mm dish, 10% FBS was added to the lower chamber for the experimental group, and 0% FBS was added to the lower chamber for the control group to identify migratability. 3% ACN, 200 μM control peptide (Ctrl-pep), MSLN-pep 25. For 50, 100, and 200 μM groups, each cell line was cultured together in the upper chamber of the 24-Transwell, and 10% FBS was treated in the lower chamber. Each group was cultured at 37° C. for 24 hours, and then the cells were photographed (original magnification, ×100) for each concentration of peptides. Cells were stained with crystal violet (0.1%), and Image J, a computer program, was used for quantitative evaluation.
as §3

[6] = system: AsPC-1 tumor; test: tumor homing of peptides in mice; assay type: in vivo, nude mice; details: TAMRA-labeled, intravenous, 6 hours circulation; liver, lungs, kidneys
Method: Pancreatic cancer cell line AsPC-1 cells (1×10^7 cells) were implanted under the skin of nude mice, left until the tumor size reaches about 100 mm^3, and then intravenously injected with 100 μl of 1 mM peptides labeled with a TAMRA fluorescence reagent, followed by circulation for 6 hours. Tumors and organs (liver, lung, and kidney) were separated and treated with paraformaldehyde for fixation and preparation of cryosections. The prepared cryosections were observed under a fluorescence microscope.
Pancreatic cancer cell line AsPC-1 cells (1×10^7 cells) were implanted under
the skin of nude mice, left until the tumor size reached about 100 mm^3, and then intravenously injected with MSLN-pep labeled with the TAMRA fluorescence reagent and control peptide (Ctrl-pep), followed by circulation for 6 hours. The tumor and control organs were separated, and cryosections were prepared, followed by observation under a fluorescence microscope.

[7] = molecular target: mesothelin (Homo sapiens, UniProt Q13421); test: immunofluorescence binding to HEK-293T cells transiently transfected with mesothelin-GFP plasmid; assay type: cell-based; parameters: GFP; host or cells: HEK293T; details: 10 μM and 25 μM MSLN-pep, 25 μM Ctrl-pep; transfected and untransfected HEK-293T
Sequence of mesothelin (Q13421 with tags, fused parts or gaps): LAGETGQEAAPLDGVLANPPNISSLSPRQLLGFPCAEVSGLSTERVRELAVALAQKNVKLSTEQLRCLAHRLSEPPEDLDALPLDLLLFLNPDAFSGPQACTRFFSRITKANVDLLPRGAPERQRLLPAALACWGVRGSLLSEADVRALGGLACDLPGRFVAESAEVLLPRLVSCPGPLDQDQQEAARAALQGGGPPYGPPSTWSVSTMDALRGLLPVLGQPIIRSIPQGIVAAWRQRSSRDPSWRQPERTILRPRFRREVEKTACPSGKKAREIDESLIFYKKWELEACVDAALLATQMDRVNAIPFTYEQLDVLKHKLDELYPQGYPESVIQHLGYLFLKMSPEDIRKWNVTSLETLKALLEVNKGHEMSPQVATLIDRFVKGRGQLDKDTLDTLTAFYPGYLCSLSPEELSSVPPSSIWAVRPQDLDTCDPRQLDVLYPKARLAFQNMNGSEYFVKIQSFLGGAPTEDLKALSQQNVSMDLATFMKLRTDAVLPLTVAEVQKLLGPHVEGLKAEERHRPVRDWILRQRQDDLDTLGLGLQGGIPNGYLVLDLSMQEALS
Method: HEK293T cells were transiently transfected using Lipofectamine 3000 (Invitrogen) in 6-well plates according to the manufacturer's protocol. Prior to transfection, 2×10^5 cells were cultured in 6-well plates for 24 hours. To transfect one well, 7.5 μl of Lipofectamine 3000 reagent was diluted in 250 μl of Opti-MEM (Invitrogen) reagent, followed by a reaction at room temperature for 5 minutes. 5 μg of mesothelin-expressing plasmid pCMV6-AC-GFP vector DNA was diluted in 250 μl of Opti-MEM (Invitrogen) reagent, followed by a reaction at room temperature for 5 minutes. The mixture of two solutions were then mixed and reacted at room temperature for 10 minutes (a total of 500 μl per well). The old medium of the cells was immediately removed, and a 500 μl of DNA-transfection reagent-mixture was added to the cells before transfer to the incubator. After 24 hours of culture, the medium was again replaced with a pre-warmed growth medium containing serum. Culture was performed for 48 hours, and the newly inserted protein was expressed in the cells.
Taken together, it was found via immunofluorescence analysis that MSLN-pep specifically binds to mesothelin.

[8] = molecular target: T1, human mesothelin (endogenous, on pancreatic cancer cell lines AsPC-1, PANC-1, BxPC-3, MiaPaCa-2) (human, UniProt Q13421 296-598); test: confocal microscopy on PANC-1 and AsPC-1 cells, 1 and 2 hours
T1 construct: whole, on cells; also called MSLN
T1 sequence (Q13421 other isoform, or with tags, fused parts or gaps limits assumed): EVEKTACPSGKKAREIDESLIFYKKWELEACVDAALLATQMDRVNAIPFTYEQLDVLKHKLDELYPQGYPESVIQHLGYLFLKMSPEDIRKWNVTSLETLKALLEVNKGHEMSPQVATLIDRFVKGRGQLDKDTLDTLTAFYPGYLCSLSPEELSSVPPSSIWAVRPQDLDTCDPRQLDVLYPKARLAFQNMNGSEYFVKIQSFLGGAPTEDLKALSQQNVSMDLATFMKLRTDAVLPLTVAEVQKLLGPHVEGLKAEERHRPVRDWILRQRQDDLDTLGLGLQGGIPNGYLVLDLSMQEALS

[9] = molecular target: T1, human mesothelin (endogenous, on …); test: cell-based or functional assay

Nc1ccn([C@@H]2O[C@H](CO)[C@@H](O)C2(F)F)c(=O)n1 [gemcitabine, reference compound]
IC50 ([1]; Homo sapiens, ASPC1, 24 h, read-out: IC50 value (cytotoxicity)): 3.3 µg/mL (≈ 12.5 µM)
viability at 10 µg/mL ([1]; Homo sapiens, ASPC1, 24 h, read-out: cell viability): ≤ 40%

CC[C@H](C)[C@@H]1NC(=O)[C@H]([C@@H](C)O)NC(=O)[C@@H](N)CSSC[C@@H](C(=O)N[C@@H](CCCCN)C(=O)N[C@@H](CC(C)C)C(=O)N[C@@H](C)C(=O)N[C@@H](CCCCN)C(=O)N[C@@H](CC(C)C)C(=O)N[C@@H](C)C(=O)N[C@@H](CCCCN)C(=O)N[C@@H](CCCCN)C(=O)N[C@@H](CC(C)C)C(=O)N[C@@H](C)C(=O)N[C@@H](CCCCN)C(=O)N[C@@H](CC(C)C)C(=O)N[C@@H](C)C(=O)N[C@@H](CCCCN)C(=O)O)NC(=O)[C@H]([C@@H](C)O)NC(=O)[C@H](CC(C)C)NC(=O)[C@H](CO)NC(=O)[C@H](Cc2c[nH]c3ccccc23)NC(=O)[C@H](CC(C)C)NC1=O [MSLN-pep-KLA] (H-CTILWSLTCKLAKLAKKLAKLAK-OH; disulfide 1-9)
IC50 [2]: 33 µM
cell viability, comparison between groups ([1]; 0, 6.25, 12.5, 25, 50, 100, and 200 uM, 24 hours): second lowest

NSSSVDK [Ctrl-pep, reference compound]
binding and internalization into cells [3]: did not bind to PANC-1 and AsPC-1
migratability compared to treatment of 10% FBS [4]: no difference in the migratability and invasiveness
invasiveness compared to treatment of 10% FBS [5]: no difference in the migratability and invasiveness
targeting to control organs (fluorescence microscopy of cryosections) [6]: barely observed
specific binding (immunofluorescence) [7]: did not have specific binding

NSSSVDK (Control peptide) [NSSSVDK control peptide (Ctrl-pep)]
binding result [8]: no binding (tested: 50 µM)

CTILWSLTCKLAKLAKKLAKLAK (disulfide 1-9) [MSLN-pep-KLA (fusion of CTILWSLTC and apoptotic peptide KLAKLAKKLAKLAK)]
cell viability of AsPC-1 after 24 hours (CCK-8), IC50 [9]: 33 µM
